Measurements reported in ChEMBL document CHEMBL1158144, “Cacalol derivatives from Roldana angulifolia” (J Nat Prod, 2006).

Legend:
Assay type in all cases: functional, cell-based
[1] = test system: U-251; assay: Cytotoxicity against human U251 cells
[2] = test system: HCT-15; assay: Cytotoxicity against human HCT-15 cells
[3] = test system: PC-3; assay: Cytotoxicity against human PC-3 cells
[4] = test system: SK-LU-1; assay: Cytotoxicity against human SKLU1 cells
[5] = test system: MCF7; assay: Cytotoxicity against human MCF7 cells
[6] = test system: K562; assay: Cytotoxicity against human K-562 cells

Measured: IC50

COc1c2c(c(C=O)c3c(COC(C)=O)coc13)[C@@H](C)CC=C2
> 10 µM: all assays above

COc1c2c(c(C=O)c3c(CO)coc13)[C@@H](C)CC=C2
> 10 µM: all assays above

COc1c2c3c(c4c(COC(C)=O)coc14)C(=O)OC[C@H]3CC=C2 [ANGULIFOLIDE]
> 10 µM: all assays above
